Assay results taken from patent publication US20230277553A1, “THERAPEUTIC COMPOSITION OF CURE-PRO COMPOUNDS FOR TARGETED DEGRADATION OF BET DOMAIN PROTEINS, AND METHODS OF MAKING AND USAGE” (CORNELL UNIVERSITY, priority 2020, published 2023).
“Also recorded” adds a separate entry of the source.

Columns and labels:
Type in all cases: cell-based
BRD3 = target: T1, BRD3 (Homo sapiens, UniProt Q15059); assay: CURE-PRO-mediated BRD3 degradation with MDM2 ligands, Western blot, HCT116 cells; conditions: HCT116, 24 h, 1:1, 10 μM
T1 construct: endogenous in cells; host or cells: HCT116
T1 sequence (Q15059 whole entry): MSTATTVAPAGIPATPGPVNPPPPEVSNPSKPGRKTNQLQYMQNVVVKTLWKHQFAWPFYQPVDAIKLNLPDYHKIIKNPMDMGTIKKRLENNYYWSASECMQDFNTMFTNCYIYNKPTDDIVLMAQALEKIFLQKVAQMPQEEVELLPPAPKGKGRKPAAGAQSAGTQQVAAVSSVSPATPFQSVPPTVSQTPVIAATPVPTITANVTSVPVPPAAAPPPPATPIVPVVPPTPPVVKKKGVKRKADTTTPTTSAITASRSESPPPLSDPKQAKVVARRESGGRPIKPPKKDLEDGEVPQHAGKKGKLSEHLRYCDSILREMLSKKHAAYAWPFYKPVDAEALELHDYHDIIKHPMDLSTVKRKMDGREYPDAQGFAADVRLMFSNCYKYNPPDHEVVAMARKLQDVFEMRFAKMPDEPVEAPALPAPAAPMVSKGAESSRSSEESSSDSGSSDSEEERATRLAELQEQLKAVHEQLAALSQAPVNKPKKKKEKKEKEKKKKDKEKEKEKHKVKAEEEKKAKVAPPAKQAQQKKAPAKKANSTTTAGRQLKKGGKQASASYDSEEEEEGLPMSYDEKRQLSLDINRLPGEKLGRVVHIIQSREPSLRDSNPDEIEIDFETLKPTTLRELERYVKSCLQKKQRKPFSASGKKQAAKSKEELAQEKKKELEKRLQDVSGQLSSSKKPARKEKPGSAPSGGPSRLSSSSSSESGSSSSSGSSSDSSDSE
Excerpt: Anti-BRD4 (13440, 1:1,000 dilution for Western Blot and 1:25 dilution for ProteinSimple); Anti-BRD2 (5848 1:1,000 dilution for Western Blot and 1:25 dilution for ProteinSimple); β-Actin (3700, 1:2,000 dilution for Western Blot), β-Actin (4970, 1:50 dilution for ProteinSimple) anti-mouse IgG-HRP, and anti-rabbit IgG-HRP antibodies were purchased Cell Signaling Technology. Anti-GAPDH (600-401-A33, 1:100 dilution for ProteinSimple) was purchased from Rockland Immunochemicals, Inc. Anti-BRD3 (sc-81202, 1:200 dilution for Western Blot) was purchased from Santa Cruz Biotechnology.
HeLa, MCF7, or HCT116 cells (2.5-3×10^6) were treated for 24 hours with the indicated compounds solubilized in DMSO. The cells were washed in ice-cold PBS and were then lysed in RIPA lysis buffer (150 mM NaCl, 5 mM EDTA, 1% NP-40, 0.5% sodium deoxycholate, 0.1% SDS, 50 mM Tris, pH 8.0.) with Roche protease inhibitor complete cocktail and phosphatase inhibitors (10 mM sodium fluoride, 10 mM sodium pyrophosphate, 1 mM sodium orthovanadate and 20 mM β-glycerophosphate). The total protein concentrations were determined by Bradford Protein Assay and 10-20 μg of protein was loaded onto 4-15% Tris-Glycine gradient gels (Biorad). […] Signal was detected with ECL Western Blotting Substrate (Pierce) and X-ray film processed with a Konica SRX-101 X-ray film processor or captured by Bio-Rad's Chemidoc Imaging system. […]

BRD4 [1] = target: T2, BRD4 (Homo sapiens, UniProt O60885); assay: CURE-PRO-mediated BRD4 degradation with MDM2 ligands, WES (ProteinSimple), HCT116 cells; parameters: endogenous in cells; conditions: HCT116, 24 h, WES; for BRD4 degradation, in combination with MDM2 ligand 8310: 1:1 with 8310, 10 μM; for BRD4 degradation, in combination with MDM2 ligand 8312: 1:1 with 8312, 10 μM
Protocol: All cell lines were purchased from ATCC or DSMZ and grown at 37° C. with 5% CO2. Human HeLa cells were cultured in complete growth medium (Dulbecco's modified Eagle's medium (DMEM) supplemented with 10% FBS); MCF7 cells were cultured in complete growth medium (Dulbecco's modified Eagle's medium (DMEM) supplemented with 10% FBS and 0.01 mg/ml human recombinant insulin (Sigma Aldrich); Namalwa and MOLM-13 cells were cultured in complete growth medium (RPMI 1640 medium supplemented with 10% FBS); MV-4-11 were cultured in complete growth medium (Iscove's Modified Dulbecco's medium, supplemented with 10% FBS); HCT116 cells were cultured in complete growth medium (McCoy's 5a Medium supplemented with 10% FBS). For cellular degradation of BRD4 studies, cells were seeded in a 12-well plate at 70-80% confluency, allowed to attach overnight, and incubated with the indicated compounds for the indicated time. When indicated, a 15-minute pretreatment with 10 μM pomalidomide, 10 μM VHL298, 10 μM Nutlin3a, 1 μM MG-132 or 1 μM Carfilzomib was performed before the addition of CURE-PROs. For washout studies, after CURE-PRO treatment, media was aspirated and incubated with complete medium for the indicated time before lysis.
WES Simple analysis was performed on WES system (ProteinSimple-Biotechne) according to the manufacturer's instructions. Total protein concentrations of cell lysates were determined by the Pierce BCA kit (Thermo Fisher). 3 μL of 0.3 μg/μL of the protein lysate was loaded onto a 12- to 230-kDa WES assay plate (ProteinSimple) where 300 nL sample was withdrawn through a capillary, subjected to electrophoretic separation of proteins by size, and followed by the simultaneous, HRP-based detection of proteins using the Anti-Rabbit Detection Module (Proteinsimple: #DM-001). The electropherograms were checked then the automatic peak detection was manually corrected if it was required.
(§1) HCT116 cells (3×10^6) were treated for 24 hours with the compounds solubilized in DMSO. Compounds were added at 1 μM-10 μM each. Standardized protein samples were electrophoresed and imaged as described in the WES ProteinSimple section above. FIGS. 59, 60, and 61 depict the concentration-dependence of CURE-PRO-mediated BRD4 degradation using MDM2 ligands.
as §1, with “62” for “59, 60,”, “63” for “61”
HCT116 cells (3×10^6) were treated for 24 hours with the compounds solubilized in DMSO. CURE-PRO monomers were added at 10 μM each and the proteasomal inhibitors at 1 μM. Standardized protein samples were electrophoresed and imaged as described in the WES ProteinSimple section above. FIG. 68 depicts the dependence of the proteasome for CURE-PRO-mediated BRD4 degradation.

BRD4 [2] = target: T2, BRD4; assay: Summary of BRD4 degradation by CURE-PRO pairs, estimated from Western Blot or WES (Proteinsimple); parameters: endogenous in cells; conditions: for Degradation of BRD4 in combination with MDM2 ligand [drawing 423] / Degradation of BRD4 in combination with MDM2 ligand [drawing 424]: Table 5, aryl-boronic acid-containing MDM2 ligand; for Degradation of BRD4 in combination with MDM2 ligand [drawing 423]: first drawing (8310); for Degradation of BRD4 in combination with MDM2 ligand [drawing 424]: second drawing (8312)
Excerpt: A black check mark indicates efficacy of 30% to 70% or higher protein degradation.

BRD4 [3] = target: T2, BRD4; assay: CURE-PRO-mediated BRD4 degradation, Western blot, HeLa cells; parameters: endogenous in cells; host or cells: HeLa; conditions: 24 h, Western blot
Procedure, shortened: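 HeLa cells treated 24 h with compounds in DMSO (1-10 μM, 10 μM or 100 μM each; paired monomers combined 1:1), optional 15-min pretreatment with pomalidomide, VHL298, Nutlin3a (10 μM) or MG-132/carfilzomib (1 μM). RIPA lysates, 10-20 μg protein immunoblotted for BRD4 with β-actin, ECL detection.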

Compound	BRD3 degradation, in combination with MDM2 ligands 8310 and 8312 (BRD3)	BRD4 degradation, in combination with MDM2 ligand 8310 (BRD4 [1])	BRD4 degradation, in combination with MDM2 ligand 8312 (BRD4 [1])	Degradation of BRD4 in combination with MDM2 ligand [drawing 423] (BRD4 [2])	Degradation of BRD4 in combination with MDM2 ligand [drawing 424] (BRD4 [2])	Degradation of BRD4 in combination with CRBN ligand [drawing 407] (BRD4 [2]; Table 4, aryl-boronic acid-containing CRBN ligand, first drawing (by text: 8048))	BRD4 degradation, co-treatment with CRBN ligand 8048 (BRD4 [3]; 1:1 with 8048, 1-10 μM each)	BRD4 degradation, co-treatment with CRBN ligand 8049 (BRD4 [3]; 1:1 with 8049, 1-10 μM each)	BRD4 degradation, BRD ligand alone (BRD4 [3]; BRD monomer alone)	BRD4 degradation, in combination with MDM2 ligand 8313 (BRD4 [1]; 1:1 with 8313, 1-10 μM each)	BRD4 degradation, in combination with MDM2 ligand 8314 (BRD4 [1]; 1:1 with 8314, 1-10 μM each)	Degradation of BRD4 in combination with CRBN ligand [drawing 372] (BRD4 [2]; Table 1, CRBN ligand, third drawing (8066))	Degradation of BRD4 in combination with CRBN ligand [drawing 370] (BRD4 [2]; Table 1, aromatic 1,2-diol- or hindered cis-1,2-diol-containing CRBN ligand, first drawing (8046))	Degradation of BRD4 in combination with VHL ligand [drawing 397] (BRD4 [2]; Table 3, aromatic 1,2-diol-containing VHL ligand, second drawing (8305))	BRD4 degradation, co-treatment with CRBN ligand 8046 (BRD4 [3]; 1:1 with 8046, 10 μM each)	BRD4 degradation, co-treatment with CRBN ligand 8066 (BRD4 [3]; 1:1 with 8066, 10 μM each (BRD-E10: 10 and 100 μM))
CCNC(=O)C[C@@H]1N=C(c2ccc(Cl)cc2)c2cc(OCCNC(=O)c3cccc(O)c3O)ccc2-n2c(C)nnc21 [BRD-N25]	degradation of BRD3; also recorded: Degradation is evident	caused BRD4 degradation; also recorded: marked BRD4 degradation	caused BRD4 degradation	✓ (A black check mark indicates efficacy of 30% to 70% or higher protein degradation)	✓ (A black check mark indicates efficacy of 30% to 70% or higher protein degradation)	–	–	–	–	–	–	–	–	–	–	–
CCNC(=O)C[C@@H]1N=C(c2ccc(Cl)cc2)c2cc(OCCOCCNC(=O)c3cccc(O)c3O)ccc2-n2c(C)nnc21 [BRD-N39, N-(2-(2-(((4S)-6-(4-chlorophenyl)-4-(2-(ethylamino)-2-oxoethyl)-1-methyl-4H-benzo[f][1,2,4]triazolo[4,3-a][1,4]diazepin-8-yl)oxy)ethoxy)ethyl)-2,3-dihydroxybenzamide]	degradation of BRD3; also recorded: Degradation is evident	caused BRD4 degradation	caused BRD4 degradation	✓ (A black check mark indicates efficacy of 30% to 70% or higher protein degradation)	✓ (A black check mark indicates efficacy of 30% to 70% or higher protein degradation)	✓ (A black check mark indicates efficacy of 30% to 70% or higher protein degradation)	causes degradation of BRD4; also recorded: Degradation is noted	no evidence of BRD4 degradation	no degradation of BRD4	–	–	–	–	–	–	–
CCNC(=O)C[C@@H]1N=C(c2ccc(Cl)cc2)c2cc(OCCCCC(=O)Nc3cccc(B(O)O)c3)ccc2-n2c(C)nnc21 [BRD-E20, (3-(5-(((4S)-6-(4-chlorophenyl)-4-(2-(ethylamino)-2-oxoethyl)-1-methyl-4H-benzo[f][1,2,4]triazolo[4,3-a][1,4]diazepin-8-yl)oxy)pentanamido)phenyl)boronic acid]	–	–	–	–	–	–	–	–	–	had no effect on BRD4 protein levels	caused partial loss of the BRD4 protein; also recorded: Degradation is observed	✓ (A black check mark indicates efficacy of 30% to 70% or higher protein degradation)	✓ (A black check mark indicates efficacy of 30% to 70% or higher protein degradation)	✓ (A black check mark indicates efficacy of 30% to 70% or higher protein degradation)	causes degradation of BRD4; also recorded: Degradation is noted	causes degradation of BRD4; also recorded: Degradation is noted
